Key:
Type in all cases: in vivo
[1] = test system: anti-inflammatory protein IkB (inhibitory kappa B); experiment: TPA-induced ear edema mouse model: immunohistochemical staining of ear tissue for IkB; details: ear tissue of TPA-treated ICR mice, 24 hours after TPA, FIG. 8
Method: (§1) The following experiment was performed using tetradecanoyl phorbol acetate (TPA)-induced ear edema (inflammation) mouse models to analyze the anti-inflammatory activity of the novel biphenyl compounds obtained in Example 1. The TPA-induced ear edema mouse model has been widely used to investigate the mechanism of the inflammatory response and the effects of inhibitory substances (Agents and Actions. 1989. 26; 335-341). More specifically, 6-week-old ICR male mice were prepared, and each 20 μl of a TPA solution dissolved in acetone at a concentration of 125 μg/ml was applied to the left ears of mice. After 1 hour of the TPA application, each 20 μl of the solvent or compound 6 (0.3% and 1%) prepared in Example 1 and dissolved in the solvent was applied to the left ears of mice and reapplied after 6 hours of the TPA application. Indomethacin, an anti-inflammatory agent, was applied to the positive control group. Each predetermined area of the left ears of mice was harvested after 24 hours of the TPA application. The weight of each of the left ears of mice was measured, and H&E staining and immunohistochemical staining were performed on ear tissues.

[2] = test system: TPA-induced ear edema (inflammation) mouse models; experiment: TPA-induced ear edema (inflammation) mouse model: ear weight and H&E staining; details: ICR male mice, 20 μl of 0.3% and 1% applied to left ear 1 hour and 6 hours after TPA, harvested after 24 hours
Method: as §1

[3] = test system: inflammation-related protein p65; experiment: TPA-induced ear edema mouse model: immunohistochemical staining of ear tissue for p65; details: ear tissue of TPA-treated ICR mice, 24 hours after TPA, FIG. 7
Method: as §1

CCCCC(=O)N(Cc1ccc(-c2ccccc2C(=O)N2CCN(C)CC2)cc1)c1ccccc1 [compound 4, N-[(2′-(4-methylpiperazine-1-carbonyl)biphenyl-4-yl)methyl]-N-phenylpentanamide]
expression of anti-inflammatory protein IkB (inhibitory kappa B) [1]: increased | inflammation and edema induced by TPA (ear weight) ([2]; FIG. 5): inhibited | ear tissues thickened by the edema induced by TPA (H&E staining) ([2]; FIG. 6): recovered to normal level | expression of inflammation-related protein p65 [3]: decreased

Source: patent US9522873B2, “Biphenyl derivative, pharmaceutically acceptable salt thereof, and methods for preventing or treating inflammatory diseases or autoimmune diseases” (Dongguk University Industry-Academic Cooperation Foundation, priority 2011, dated 2016)
